The test has as its system C. parvum strain UGA1. As to the kind of experiment: C. parvum growth inhibition assay (Nluc luminescence in HCT-8 cells). The settings on record: Cryptosporidium parvum; for EC50: HCT-8, 48 h, C. parvum growth inhibition in HCT-8 cells, 48 hours, 6 concentrations 10-0.04 μM; for inhibition at 1 µM / inhibition at 10 µM: HCT-8; for inhibition at 1 µM: read-out: % inh @ 1 uM C. parvum; for inhibition at 10 µM: read-out: % inh @ 10 uM C. parvum. Format: cell-based, Cryptosporidium parvum. How it is done: C. parvum GROWTH INHIBITION ASSAYS
C. parvum growth inhibition was performed as described in Hulverson M A, Vinayak S, Choi R, Schaefer D A, Castellanos-Gonzalez A, Vidadala R S R, Brooks C F, Herbert G T, Betzer D P, Whitman G R, Sparks H N, Arnold S L M, Rivas K L, Barrett L K, White A C Jr, Maly D J, Riggs M W, Striepen B, Van Voorhis W C, Ojo K K. Bumped-Kinase Inhibitors for Cryptosporidiosis Therapy. J Infect Dis. 2017 Apr. 15; 215(8):1275-1284.
C. parvum strain UGA1 […] (ATCC, Manassas, VA) were prepared as described below. HCT-8 cells were inoculated onto 96-well plates were grown for 48 hours to 90%-100% confluence. C. parvum oocysts were then incubated for 10 minutes in 10% bleach at room temperature and washed with Dulbecco's phosphate-buffered saline. One thousand oocysts per well were applied to plates with Roswell Park Memorial Institute 1640 (RPMI) medium supplemented with 10% horse serum and 1% penicillin/streptomycin. Compounds of Formula (I), Formula (II), and Formula (III) were added to the plates at different concentrations and the plates were incubated for 48 hours. Following the incubation, the monolayers were lysed for 1 hour before a luciferase reagent was added, and relative luminescence units were determined.
For certain compounds of Formula I, Formula II, and Formula III, EC50 values were calculated using curves calculated from Prism after analysis of C. parvum growth inhibition at 6 different concentrations: 10, 3.33, 1.11, 0.37, 0.12, and 0.04 μM. […] For certain compounds of Formula I, Formula II, and Formula III, single point inhibition values of 0-33% (activity level D), between 33% and 66% (activity level E), and between 67% and 100% (activity level F) are also shown in Table 1 below.

Where [1] appears, read: single point inhibition at 1 uM.
The mark [2] stands for this setting: single point inhibition at 10 uM.
Setting [3] is: single point inhibition @ 10 uM.

Like-named read-outs stand apart in the source and are kept apart here.

This is an account of results in patent US20240124444A1 (Celgene Corporation, priority 2020, published 2024).

For `CN(C)C(=O)Nc1cc2[nH]c(C(F)(F)F)cc2cn1` [Example 108, 1,1-dimethyl-3-(2-(trifluoromethyl)-1H-pyrrolo[3,2-c]pyridin-6-yl)urea], the EC50 was over 1 µM.

Take `Cc1cc(-c2cc3cnc(NC(=N)C4CC4)cc3[nH]2)ccn1` [Example 96, N-(2-(2-methylpyridin-4-yl)-1H-pyrrolo[3,2-c]pyridin-6-yl)cyclopropanecarboximidamide]: the EC50 was over 1 µM. In the case of `Cn1cc(-c2cc3cnc(NC(=O)C4CC4)cc3[nH]2)cn1` [Example 210, N-(2-(1-methyl-1H-pyrazol-4-yl)-1H-pyrrolo[3,2-c]pyridin-6-yl)cyclopropanecarboxamide], the inhibition at 1 µM under setting [1] lay in the range of 0 to 33%. Moreover, the inhibition at 10 µM under setting [2] lay within 67 to 100%. For `Cn1cc(C(=O)Nc2cc3[nH]c(-c4ccnc(OCCC(F)(F)F)n4)cc3cn2)cn1` [Example 213, 1-methyl-N-(2-(2-(3,3,3-trifluoropropoxy)pyrimidin-4-yl)-1H-pyrrolo[3,2-c]pyridin-6-yl)-1H-pyrazole-4-carboxamide] the same measures were 0 to 33% and 67 to 100%. In the case of `Cc1cc(-c2cc3cnc(NC(=O)CC4COC4)cc3[nH]2)ccn1` [Example 165, N-(2-(2-methylpyridin-4-yl)-1H-pyrrolo[3,2-c]pyridin-6-yl)-2-(oxetan-3-yl)acetamide], the inhibition at 1 µM (single point inhibition @ 1 uM) lay in the range of 0 to 33%. The inhibition at 10 µM under setting [3] was in the range of 67 to 100%.

Regarding `CC(Oc1nccc(-c2cc3cnc(NC(=O)c4cnn(C)c4)cc3[nH]2)n1)C(F)(F)F` (stereo in doubt) [Example 314, (R)-1-methyl-N-(2-(2-(1,1,1-trifluoropropan-2-yloxy)pyrimidin-4-yl)-1H-pyrrolo[3,2-c]pyridin-6-yl)-1H-pyrazole-4-carboxamide], the inhibition at 1 µM under setting [1] was in the range of 0 to 33%. The inhibition at 10 µM under setting [2] lay in the range of 0 to 33%. As to `Cc1cc(Nc2cc3[nH]c(-c4ccnc(C#N)c4)cc3cn2)cc(-n2cncn2)c1` [Example 339, 4-(6-(3-methyl-5-(1H-1,2,4-triazol-1-yl)phenylamino)-1H-pyrrolo[3,2-c]pyridin-2-yl)picolinonitrile], the inhibition at 1 µM under setting [1] fell in the range of 0 to 33%. In addition, the inhibition at 10 µM under setting [2] was 0 to 33%. On to `O=C(Nc1cc2[nH]c(-c3ccnc(OCC(F)F)n3)cc2cn1)c1cnn(CC2CCCO2)c1` (stereo in doubt) [Example 234, (S)-N-(2-(2-(2,2-difluoroethoxy)pyrimidin-4-yl)-1H-pyrrolo[3,2-c]pyridin-6-yl)-1-((tetrahydrofuran-2-yl)methyl)-1H-pyrazole-4-carboxamdie], for which the inhibition at 1 µM under setting [1] lay in the range of 33 to 66%. Besides, the inhibition at 10 µM under setting [2] was in the range of 33 to 66%. For the compound `CSc1ccc(Nc2cc3c(cn2)cc(-c2cnn(C)c2)n3C)cc1` [Example 193, 1-methyl-2-(1-methyl-1H-pyrazol-4-yl)-N-(4-(methylthio)phenyl)-1H-pyrrolo[3,2-c]pyridin-6-amine], under “single point inhibition @ 1 uM”, the inhibition at 1 µM was in the range of 0 to 33%. For the same compound, under setting [3], the inhibition at 10 µM is 67 to 100%. As for `CC(C)n1cc(-c2cc3cnc(NC4CCOCC4)cc3n2C)cn1` [Example 241, 2-(1-isopropyl-1H-pyrazol-4-yl)-1-methyl-N-(tetrahydro-2H-pyran-4-yl)-1H-pyrrolo[3,2-c]pyridin-6-amine], the inhibition at 1 µM under setting [1] lay within 33 to 66%. In addition, the inhibition at 10 µM under setting [2] lay within 0 to 33%. Take `CC(C)n1cc(C(=O)Nc2cc3[nH]c(-c4ccnc(OCC(F)(F)F)n4)cc3cn2)cn1` [Example 186, 1-isopropyl-N-(2-(2-(2,2,2-trifluoroethoxy)pyrimidin-4-yl)-1H-pyrrolo[3,2-c]pyridin-6-yl)-1H-pyrazole-4-carboxamide]: the inhibition at 1 µM (single point inhibition @ 1 uM) is 0 to 33%. Besides, the inhibition at 10 µM under setting [3] fell in the range of 67 to 100%. Consider `O=C(Nc1cc2[nH]c(-c3ccc(F)cn3)cc2cn1)C1CC1` [Example 268, N-(2-(5-fluoropyridin-2-yl)-1H-pyrrolo[3,2-c]pyridin-6-yl)cyclopropanecarboxamide], for which the inhibition at 1 µM under setting [1] was in the range of 0 to 33%. Also, under setting [2], the inhibition at 10 µM was in the range of 0 to 33%. Take `COc1nccc(-c2cc3cnc(NC(=O)C(C)(C)C)cc3[nH]2)n1` [Example 297, N-(2-(2-methoxypyrimidin-4-yl)-1H-pyrrolo[3,2-c]pyridin-6-yl)pivalamide]: under setting [1], the inhibition at 1 µM lay within 0 to 33%. Besides, the inhibition at 10 µM under setting [2] fell in the range of 0 to 33%. For `Cn1cc(C(=O)Nc2cc3[nH]c(-c4cc(C#N)ccn4)cc3cn2)cn1` [Example 300, N-(2-(4-cyanopyridin-2-yl)-1H-pyrrolo[3,2-c]pyridin-6-yl)-1-methyl-1H-pyrazole-4-carboxamide], the inhibition at 1 µM under setting [1] was 0 to 33%. In addition, the inhibition at 10 µM under setting [2] lay in the range of 0 to 33%.

Regarding `CN(CC(F)(F)F)c1nccc(-c2cc3cnc(NC4CCOCC4)cc3[nH]2)n1` [Example 370, 2-(2-(methyl(2,2,2-trifluoroethyl)amino)pyrimidin-4-yl)-N-(tetrahydro-2H-pyran-4-yl)-1H-pyrrolo[3,2-c]pyridin-6-amine], the EC50 lay within 0.5 to 1 µM.

Consider `CCn1cc(C(=O)Nc2cc3[nH]c(-c4ccnc(OCC(F)F)n4)cc3cn2)c(C)n1` [Example 318], for which the inhibition at 1 µM under setting [1] was 0 to 33%. Also, under setting [2], the inhibition at 10 µM fell in the range of 0 to 33%. As to `Cc1cc(Nc2cc3[nH]c(-c4cccnc4)cc3cn2)cc(-n2cncn2)c1` [Example 337, N-(3-methyl-5-(1H-1,2,4-triazol-1-yl)phenyl)-2-(pyridin-3-yl)-1H-pyrrolo[3,2-c]pyridin-6-amine], the inhibition at 1 µM under setting [1] fell in the range of 0 to 33%. Besides, under setting [2], the inhibition at 10 µM lay within 0 to 33%.

For `O=C(Nc1cc2[nH]c(-c3ccncc3)cc2cn1)[C@@H]1CCOC1` [Example 135, (R)-N-(2-(pyridin-4-yl)-1H-pyrrolo[3,2-c]pyridin-6-yl)tetrahydrofuran-3-carboxamide], where the note is “single point inhibition @ 1 uM”, the inhibition at 1 µM was 0 to 33%. In addition, under setting [3], the inhibition at 10 µM was in the range of 67 to 100%.

For `O=C(Nc1cc2[nH]c(-c3cccnc3)cc2cn1)C1CCCC1` [Example 276, N-(2-(pyridin-3-yl)-1H-pyrrolo[3,2-c]pyridin-6-yl)cyclopentanecarboxamide], the inhibition at 1 µM under setting [1] lay in the range of 0 to 33%. The inhibition at 10 µM under setting [2] was 0 to 33%. `COc1nccc(-c2cc3cnc(NC(=O)c4ccc(N5CCOCC5)cc4)cc3[nH]2)n1` [Example 320, N-(2-(2-methoxypyrimidin-4-yl)-1H-pyrrolo[3,2-c]pyridin-6-yl)-4-morpholinobenzamide]: the inhibition at 1 µM under setting [1] lay within 0 to 33%. Besides, the inhibition at 10 µM under setting [2] fell in the range of 0 to 33%. On to `CN(CC(F)(F)F)c1cc(-c2cc3cnc(NC4CCOCC4)cc3[nH]2)ccn1` [Example 381, 2-(2-(methyl(2,2,2-trifluoroethyl)amino)pyridin-4-yl)-N-(tetrahydro-2H-pyran-4-yl)-1H-pyrrolo[3,2-c]pyridin-6-amine], for which the 50% effective concentration (EC50) was over 1 µM. On to `Cn1c(-c2ccccc2)cc2cnc(NC(=O)C3CCOCC3)cc21` [Example 265, N-(1-methyl-2-phenyl-1H-pyrrolo[3,2-c]pyridin-6-yl)tetrahydro-2H-pyran-4-carboxamide], for which the inhibition at 1 µM under setting [1] is 0 to 33%. Moreover, the inhibition at 10 µM under setting [2] lay in the range of 0 to 33%. The compound `Cc1cc(-c2cc3cnc(NS(=O)(=O)C4CC4)cc3[nH]2)ccn1` [Example 97, N-(2-(2-methylpyridin-4-yl)-1H-pyrrolo[3,2-c]pyridin-6-yl)cyclopropanesulfonamide] returned a concentration giving a half-maximal response (EC50) of over 1 µM. Same read-out and setting: the result for `Cn1ccc(-c2cc3cnc(NC(=O)C4CC4)cc3n2C)n1` [Example 345, N-(1-methyl-2-(1-methyl-1H-pyrazol-3-yl)-1H-pyrrolo[3,2-c]pyridin-6-yl)cycloproapnecarboxamide] reads over 1 µM.
